Assay results published in paper PMC8145938, “Triphenilphosphonium Analogs of Chloramphenicol as Dual-Acting Antimicrobial and Antiproliferating Agents” (Antibiotics, 2021).

Assays:
[1] = test system: E. coli ∆tolC; experiment: MIC determination, broth microdilution; assay type: cell-based; conditions: Escherichia coli
Method: (§1) E. coli ∆tolC CHL-resistant strain harboring plasmid encoding for chloramphenicol acetyltransferase (cat) (pCA24N-LacZ) and the control E. coli ∆tolC strain was used to evaluate the inhibitory effect of the compounds. CHL-resistant strains of B. subtilis pHT01-cat and B. subtilis pHT01-cfr were prepared by means of a transformation of a B. subtilis 168 strain with plasmids harboring the cat and cfr genes (chloramphenicol-florfenicol resistance) gene. The cfr gene encodes for the methyltransferase, which catalyzes the methylation of […] in the 23S rRNA and causes resistance to a variety of ribosome-targeting antibiotics that bind in the A site of the bacterial ribosome.
(§2) A standard laboratory strain of E. coli JW5503, with the deletion of the tolC gene, referred to here as the ∆tolC strain, was used to obtain the ∆tolC pCA24N-LacZ strain by means of transformation with the plasmid pCA24N-LacZ-harboring chloramphenicol acetyltransferase (cat) gene.
(§3) The MICs for CAM-Cn-TPP and Cn-TPP were determined by Mueller-Hinton broth microdilution, as recommended by CLSI in the Methods for Dilution Antimicrobial Susceptibility Tests for Bacteria that Grow Aerobically, Approved Standard, 9th ed., CLSI document M07-A9, using in-house-prepared panels. The compounds were diluted in a 96-well microtiter plate to final concentrations ranging from 0.5 to 360 μM in a 250-µL aliquot of the bacterial suspension, followed by incubation at 37 °C or 30 °C for 18 h. […] The bacterial growth was observed visually alongside OD measurements. The experiments were carried out in triplicate.

[2] = test system: E. coli ∆tolC-CAT; experiment: MIC determination, broth microdilution; assay type: cell-based; conditions: Escherichia coli
Method: as §1, §2, §3

[3] = test system: Listeria monocytogenes; experiment: MIC determination, broth microdilution; assay type: cell-based
From the text: (§4) Standard laboratory strains of Bacillus subtilis subs. subtilis Cohn 1872, stains BR151, and 168, Staphylococcus aureus subsp. aureus Rosenbach 1884 strains JCM 2151 and entry MC#144 (from the Microorganisms Collection of the Moscow State University), Listeria monocytogenes Pirie 1940, Mycobacterium smegmatis Lehmann and Neumann 1899 (MC#377), and Escherichia coli Castellani and Chalmers 1919, strain JW5503 (with the deletion of tolC gene), which are resistant to the chloramphenicol strains, J53rif, C600rif/pIB55-1, C600rif/pIP162-1, and C600recA naI, were used.
(§5) S. aureus was grown in Bacto Tryptic Soy Broth, L. monocytogenes in Brain Heart Infusion Broth, and E. coli in LB. Bacterial cells were grown at 30 °C or 37 °C in the appropriate medium at a 140 rpm shaking frequency.
as §3

[4] = test system: Staphylococcus aureus; experiment: MIC determination, broth microdilution; assay type: cell-based
From the text: as §4, §5, §3

[5] = test system: Bacillus subtilis; experiment: MIC determination, broth microdilution; assay type: cell-based
From the text: as §4, §3

[6] = test system: Mycobacterium smegmatis; experiment: MIC determination, broth microdilution; assay type: cell-based; conditions: Mycolicibacterium smegmatis
From the text: as §4, §3

[7] = test system: E. coli BW25113 ΔtolC pDualrep2 reporter strain; experiment: pDualrep2 double fluorescent reporter assay on agar plate; assay type: cell-based; conditions: for inhibition of cell growth (inhibition zone) of the reporter strain: 10 mM, 1.5 μL spotted on agar lawn; for induction of reporters (Katushka2S: ribosome stalling; RFP: DNA damage): compound spotted on agar lawn, overnight 37 °C
From the text: Next, we tested the effects of CAM-C10-TPP and CAM-C14-TPP in bacterial cells using an E. coli ∆tolC-based reporter system, which is designed to screen inhibitors targeting either protein synthesis or DNA replication. In this reporter system, the gene of the far-red fluorescent protein, katushka2S, is inserted downstream of the genetically modified tryptophan attenuator, making it possible to express Katushka2S only upon exposure to ribosome-stalling compounds (Figure 2B, CHL and ERY, red pseudocolor rings).
Reporter strain […] [71] ΔtolC (BW25113) pDualrep2 was used, as previously described. The tested antibiotics, CAM-C10-TPP (10 mM, 1.5 μL), CAM-C14-TPP (10 mM, 1.5 μL), C10-TPP (10 mM, 1.5 μL), C14-TPP (10 mM, 1.5 μL), CAM (10 mM, 1.5 μL), CAM-Ac (10 mM, 1.5 μL), chloramphenicol (CHL, 2 mM, 1 μL), erythromycin (Ery, 7 mM, 1 μL), and levofloxacin (Lev, 70 nM, 1 μL), were applied to an agar plate that already contained a lawn of the reporter strain. After being incubated overnight at 37 °C, the plate was scanned by ChemiDoc (Bio-Rad) in the modes, “Cy3-blot” for RFP and “Cy5-blot” for Katushka2S.

[8] = test system: MCF7; experiment: MTT assay growth inhibition; assay type: cell-based; conditions: Homo sapiens, 72 h, read-out: 50% growth inhibition concentration (GI50)
Method: (§6) The cytotoxicity of the tested substances was tested using the MTT (3-(4,5-dimethylthiazol-2-yl)-2,5-diphenyltetrazolium bromide) assay, with some modifications, and 2500 cells per well for the MCF7, HEK293T, and A549 cell lines or 4000 cells per well for the VA-13 cell line were plated in 135 µL of DMEM-F12 media (Gibco, Waltham, MA, USA) in a 96-well plate and incubated in the 5% CO2 incubator for first 16 h, without treatment. Then, 15 µL of media-DMSO solutions of the tested substances was added to the cells (the final DMSO concentrations in the media were 1% or less) and treated cells for 72 h with 25 nM–50 µM (eight dilutions) of our substances (triplicate each), and serial DMSO dilutions and doxorubicin were used as controls. The MTT reagent (Paneco LLC, Moscow, Russia) was then added to cells to a final concentration of 0.5 g/L (10× stock solution in PBS was used) and incubated for 2.5 h at 37 °C in the incubator under an atmosphere of 5% CO2. The MTT solution was then discarded, and 140 µL of DMSO (PharmaMed LLC, Krasnodarsky Krai, Russia) was added. The plates were swayed on a shaker (60 rpm) to dissolve the formazan. The absorbance was measured using a microplate reader (VICTOR X5 Light Plate Reader, PerkinElmer, Waltham, MA, USA) at a wavelength of 565 nm (in order to measure formazan concentration). The results were used to construct a dose-response graph and to estimate the CC50 value.

[9] = test system: VA13; experiment: MTT assay growth inhibition; assay type: cell-based; conditions: VA-13, 72 h, read-out: 50% growth inhibition concentration (GI50)
Method: as §6

[10] = test system: HEK293T; experiment: MTT assay growth inhibition; assay type: cell-based; conditions: Homo sapiens, HEK-293T, 72 h, read-out: 50% growth inhibition concentration (GI50)
Method: as §6

[11] = test system: B. subtilis pHT01-cat; experiment: MIC determination, broth microdilution; assay type: cell-based; conditions: Bacillus subtilis, PHT01CAT
Method: as §1
(§7) A standard laboratory strain of B. subtilis 168 was used to obtain the CHL-resistant strains, B. subtilis pHT01-CAT and B. subtilis pHT01-cfr, by means of transformation with the corresponding plasmids. Competent cell preparation and transformation procedures were conducted, as reported in [74, 75]. The desired colonies were selected at 10 µg/mL of CHL for B. subtilis pHT01 and 5 µg/mL or 3.2 µg/mL of CHL for B. subtilis pHT01-cfr.
as §3

[12] = test system: B. subtilis pHT01-cfr; experiment: MIC determination, broth microdilution; assay type: cell-based; conditions: Bacillus subtilis, PHT01CFR
Method: as §1, §7, §3

[13] = test system: A549; experiment: MTT assay growth inhibition; assay type: cell-based, human; conditions: Homo sapiens, A549; MTT, 72 h; read-out: 50% growth inhibition concentration (GI50)
Method: as §6

[14] = test system: Escherichia coli C600rif/pIP162-1; experiment: MIC determination, CHL resistant E. coli strains; assay type: cell-based
From the text: as §4, §3

[15] = test system: Escherichia coli J53rif; experiment: MIC determination, CHL resistant E. coli strains; assay type: cell-based
From the text: as §4, §3

[16] = test system: Escherichia coli C600rif/pIB55-1; experiment: MIC determination, CHL resistant E. coli strains; assay type: cell-based
From the text: as §4, §3

[17] = test system: Escherichia coli C600recA naI; experiment: MIC determination, CHL resistant E. coli strains; assay type: cell-based; conditions: C600RECANAI
From the text: as §4, §3

| SMILES | MIC [1] [µM] | MIC [2] [µM] | MIC [3] [µM] | MIC [4] [µM] | MIC [5] [µM] | MIC [6] [µM] | inhibition of cell growth (inhibition zone) of the reporter strain [7] | induction of reporters (Katushka2S: ribosome stalling; RFP: DNA damage) [7] | GI50 [8] [nM] | GI50 [9] [nM] | GI50 [10] [nM] | MIC [11] [µM] | MIC [12] [µM] | GI50 [13] [nM] | MIC [14] [µM] | MIC [15] [µM] | MIC [16] [µM] | MIC [17] [µM] |
| --- | --- | --- | --- | --- | --- | --- | --- | --- | --- | --- | --- | --- | --- | --- | --- | --- | --- | --- |
| CCCCCCCCCCCCCC[P+](c1ccccc1)(c1ccccc1)c1ccccc1 [C14-TPP, tetradecyl(triphenyl)phosphonium bromide] | 1.6 | 6 | 2 | 1.6 | 8 | 4 | inhibit bacterial cell growth | do not induce either of the two reporters | 20 ± 10 | 70 ± 50 | 30 ± 20 | 1.6 | 0.8 | 25 ± 9 |  |  |  |  |
| C[C@H]1COc2c(N3CCN(C)CC3)c(F)cc3c(=O)c(C(=O)O)cn1c23 [LEV, levofloxacin] |  |  |  |  |  |  |  | green pseudocolored rings |  |  |  |  |  |  |  |  |  |  |
| CCCCCCCCCC[P+](c1ccccc1)(c1ccccc1)c1ccccc1 [C10-TPP, decyl(triphenyl)phosphonium bromide] | 3 | 3 | 5 | 2 | 2 | < 2 | inhibit bacterial cell growth | do not induce either of the two reporters | 210 ± 30 | 270 ± 50 | 80 ± 10 | 1.6 | 0.8 | 70 ± 10 | 93 | 110 | 67 | 136 |
| COc1cccc2c1C(=O)c1c(O)c3c(c(O)c1C2=O)C[C@@](O)(C(=O)CO)C[C@@H]3O[C@H]1C[C@H](N)[C@H](O)[C@H](C)O1 [Doxorubicin, doxorubicin] |  |  |  |  |  |  |  |  | 40 ± 10 | 180 ± 40 | 7 ± 1 |  |  | 40 ± 10 |  |  |  |  |
| CC(=O)N[C@H](CO)[C@H](O)c1ccc([N+](=O)[O-])cc1 [CAM-Ac, N-acetyl-chloramphenicol amine] |  |  |  |  |  |  |  | neither the induction of either of the two reporters |  |  |  |  |  |  |  |  |  |  |
| CC[C@H]1OC(=O)[C@H](C)[C@@H](O[C@H]2C[C@@](C)(OC)[C@@H](O)[C@H](C)O2)[C@H](C)[C@@H](O[C@@H]2O[C@H](C)C[C@H](N(C)C)[C@H]2O)[C@](C)(O)C[C@@H](C)C(=O)[C@H](C)[C@@H](O)[C@]1(C)O [ERY, erythromycin] |  |  |  |  |  |  |  | red pseudocolor rings are observed due to the expression of the fluorescent protein, Katushka2S (but not RFP) |  |  |  |  |  |  |  |  |  |  |
